The values below come from US11571426B2, “Compositions for preventing or treating lupus” (CHONG KUN DANG PHARMACEUTICAL CORP., priority 2017, dated 2023).

For series [1], the system named is NZB/W F1 female mice. Put plainly: Proteinuria and UP/C in SLE model mouse. The format is in vivo. The settings on record: positive control 5 mg/kg/day; 42 weeks old. As to the method:
(§1) 80 NZB/W F1 female mice (four weeks old) were purchased from Jackson Laboratory and maintained in an SPF breeding room with five mice per cage. Their weight and urine protein were measured at 24 weeks after birth (right before administration), and then all the animals except those having too much urine protein were divided into groups as shown in a table 2 below such that the urine protein and weight might be evenly distributed among the groups.
(§2) Then, the mice were administered as described in the table 2 once a day for about 19 weeks from 24 weeks after birth to 42 weeks after birth.
(§3) The fresh urine of mice was collected before and after administration every two weeks, while blood collection was performed before and after administration every four weeks. The serum was prepared by centrifugation of the collected blood and then kept at −70° C.
A urine creatinine concentration was obtained by diluting the urine 100-fold, then measuring the concentration thereof by means of a serum chemistry analyzer (Dri-CHEM 3000 colorimetric analyzer, Fujifilm), and then calibrating the measured value using a dilution factor.

Series [2] relates to NZB/W F1 female mice. Description: Serum cytokine level (Milliplex MAP kit) in SLE disease mouse. The series is classed as in vivo. The settings on record: group P, 5 mg/kg/day i.p., n = 13. As to the method: as §1, §2, §3
To analyze an effect of the inventive pharmaceutical composition on a change in a serum cytokine level in the SLE disease mouse, a level of GM-CSF, IFN-γ, IL-1α, IL-1β, IL-10, IL-12(p70), IL-15, IL-17a, IL-2, IL-4, IL-6, TNF-α, […], IL-22 and IL-23 in serum was measured by means of a Mouse cytokine Milliplex MAP kit (Merck Millipore), wherein the results thereof were shown in a table 3.
Data obtained from groups were compared using a Kruskal-Wallis (†p<0.05) *p<0.05 versus C group (Mann-Whitney U-test)

Series [3] has as its system NZB/W F1 female mice. Description: Serum chemistry after long-term administration. The series is classed as in vivo, mouse. The settings on record: group P, 5 mg/kg/day i.p.; serum at autopsy. As to the method: as §1, §2
Data obtained from groups were compared using a Kruskal-Wallis (†p<0.05), *p<0.05 versus C group (Mann-Whitney U-test), ALT: alanine aminotransferase, AST: aspartate aminotransferase, ALP: alkaline phosphatase, TBIL: total bilirubin, TCHOL: total cholesterol, TG: triglyceride, TP: total protein, CPK: creatine phosphokinase)

Series [4] relates to NZB/W F1 female mice. Description: T cell populations in spleen (FACS) in SLE disease mouse. The series is classed as in vivo. The settings on record: positive control 5 mg/kg/day; vs negative control.
The test system of series [5] is TNFα secretion in LPS-stimulated human monocyte cell lines (THP-1). Put plainly: Suppression of TNFα secretion in LPS-stimulated THP-1 (ELISA). The format is cell-based. As to the method: To identify the efficacy of the inventive compounds on suppressing a TNFα secretion in immune responses, suppression of TNFα production, which was achieved by a treatment with compounds 374, 461, 500, 530 and 532 according to the present invention in LPS-stimulated human monocyte cell lines (THP-1), was quantified by means of an enzyme immuno-assay (ELISA).
Specifically, the THP-1 cell lines (ATCC) were cultured in an RPMI-1640 medium comprising 10% FBS. The cell lines were divided into a 24 well plate at a ratio of 1×10^5 cells per well, then treated with 100 ng/mL PMA (phorbol 12-myristate 13-acetate) for 24 hours, and then differentiated into macrophage. Then, the culture medium was replaced with a new one, then treated with a test drug for 24 hours, and then treated again with 10 ng/mL LPS (E. Coli, O55:B5) for four hours for stimulation. After that, supernatant was taken and used to measure the amount of TNFα secreted from the cells by means of a Human TNFα Instant ELISA kit (eBioscience, BMS223INST) according to a protocol provided by a manufacturer.
On the technique in general: An ELISA detects its analyte on a solid surface through an enzyme-linked reagent.

Series [6] relates to CTLA4 (cytotoxic T-lymphocyte-associated protein 4) in the regulatory T cells. Put plainly: CTLA4 expression in regulatory T cells (flow cytometry). The settings on record: 1000 nM. The format is cell-based, mouse. As to the method:
To identify if the compounds according to the present invention regulate a function of regulatory T cells in immune responses, compounds 255, 280, 374, 416 and 476 were treated, and then an expression level of an immune checkpoint receptor CTLA4 (cytotoxic T-lymphocyte-associated protein 4) in the regulatory T cells was measured by means of flow cytometry.
Specifically, a six-week old C57BL6 male mice were supplied from Central Lab Animal Inc., then acclimated for one week, and then used in an experiment. A spleen was isolated from the mouse, and then treated with collagenase D (Roche, 11088866001), such that splenocytes were isolated therefrom. CD4+CD25− T cells were isolated by means of a CD4+CD25+ regulatory T cell isolation kit (Miltenyi Biotec, 130-091-041), and then CD4+CD25− T cells (at a ratio of 5×10^5 cells/well) were treated with an anti-CD3c/anti-CD28 mAb bead (T cell activation/expansion kit, Miltenyi Biotec, 130-093627) and a mouse recombinant TGF-β2 for six days, such that they were differentiated into iTreg. A test drug was simultaneously treated for six days, during which the cells were differentiated into iTreg. After that, the cells were incubated by means of anti-CD^4/anti-CD25 mAb (eBioscience, 25-0042-82, 17-0251-82) at 4° C. for 20 minutes, and then labeling was performed. […]
In general terms: A flow cytometer gives signals particle by particle.

Setting [7] is: on increasing concentration from 100 nM to 300 nM.

Marks after values point to notes of the source that are not given here.

For `C[C@H]1C[C@@H]2[C@H]([C@@H](O)C[C@@]3(C)[C@H]2CC[C@]3(O)C(=O)CO)[C@@]2(C)C=CC(=O)C=C12` [Methylprednisolone, reference compound], the “incidence rate of severe proteinuria of 300 mg/dl or more” value in the series on NZB/W F1 female mice [1] is 20%. Moreover, in the series on NZB/W F1 female mice [2], the IFN-γ in serum was found to be 0.07 ± 0.07 pg/mL, the IL22 in serum worked out at 17.68 ± 4.49 pg/mL, the IL-1α in serum turned out to be 666.21 ± 146.22 pg/mL and the IL-1β in serum stood at 0.65 ± 0.65 pg/mL. Moreover, in the series on NZB/W F1 female mice [2], the IL-2 in serum turned out to be 0.09 ± 0.09 pg/mL, the IL-4 in serum came out at 1.49 ± 0.06 pg/mL, the IL-6 in serum amounted to 3.36 ± 0.92 pg/mL and the IL-23 in serum worked out at 22.31 ± 17.13 pg/mL. The molecule further displayed a TGF-β in serum in the series with NZB/W F1 female mice [2] of 66007.78 ± 5207.83 pg/mL. Also, in the series on NZB/W F1 female mice [3], the ALP is 207.45 ± 7.21 U/I, the ALT is given as 24.09 ± 2.00* U/I, the AST is listed as 52.09 ± 4.25* U/I and the Albumin is recorded as 2.52 ± 0.07* g/dl. In the series with NZB/W F1 female mice [3], this molecule showed a Ca of 9.35 ± 0.16 mg/dL, a Glucose of 189.27 ± 12.23 mg/dL, a TBIL of 0.41 ± 0.09 mg/dL and a TCHOL of 162.09 ± 8.97 mg/dL. Further, in the series with NZB/W F1 female mice [3], the TG came to 251.82 ± 29.19 mg/dL and the TP was 5.42 ± 0.11* g/dl. Also, the “decrease of ratio of CD138+ cells” value in the series on NZB/W F1 female mice [4] turned out to be 16.3%.
Take `O=C(NO)c1ccc(CN(C(=O)N2CCOCC2)c2cccc(F)c2)cc1` [Compound 530, N-(3-fluorophenyl)-N-(4-(hydroxycarbamoyl)benzyl)morpholine-4-carboxamide]: the “level of TNFα secretion” value in series [5] (setting [7]) was “drastically decreased”.
For the molecule `O=C(NO)c1ccc(CN(C(=O)N2CCOCC2)c2cccc(Br)c2)cc1` [Compound 255, N-(3-bromophenyl)-N-(4-(hydroxycarbamoyl)benzyl)morpholine-4-carboxamide], the cytotoxicity entry in series [6] is “severe cytotoxicity”.
Turning to `O=C(NO)c1ccc(CN(C(=O)N2CCOCC2)c2cccc(CF)c2)cc1` [Compound 500, N-(3-(fluoromethyl)phenyl)-N-(4-(hydroxycarbamoyl)benzyl)morpholine-4-carboxamide], the “level of TNFα secretion” value in series [5] (at both 100 nM and 300 nM) is reported as “remarkably decreased”.
Turning to `CCN1CCN(C(=O)N(Cc2ccc(C(=O)NO)cc2)c2cccc(C(F)(F)F)c2)CC1` [Compound 461, 4-ethyl-N-(4-(hydroxycarbamoyl)benzyl)-N-(3-(trifluoromethyl)phenyl)piperazine-1-carboxamide], the “level of TNFα secretion” value in series [5] (at both 100 nM and 300 nM) is on record as “remarkably decreased”.
`O=C(NO)c1ccc(CN(C(=O)N2CCOCC2)c2cccc(C(F)(F)F)c2)c(F)c1` [Compound 532, N-(2-fluoro-4-(hydroxycarbamoyl)benzyl)-N-(3-(trifluoromethyl)phenyl)morpholine-4-carboxamide]: the “level of TNFα secretion” value in series [5] (setting [7]) is reported as “drastically decreased”.
